Experimental findings from US20120101100A1 (priority 2008, published 2012) are described below.

Values after ≈ are worked out from the molar mass of the structure shown.

As a reminder, the IC50 is the concentration that inhibits the measured activity by half. The inhibition is the change of the read-out against control, counted positive when it falls. What is called MIC is the least concentration at which growth counts as inhibited. The low end stands for greater potency, the high end for weaker potency.

The target in one test is S. aureus GyrB ATPase (Staphylococcus aureus, UniProt P0A0K8). In words: S. aureus (SAU) GyrB ATPase inhibition, malachite green phosphate detection (E. coli GyrA + S. aureus GyrB). The class given is biochemical. The method, boiled down: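 E. coli GyrA and S. aureus GyrB (1.25 nM each) with 500 μM ATP and 5 μg/ml sheared salmon sperm DNA in 50 mM Hepes pH 7.5, 8.0 mM MgCl2. Released phosphate detected with ammonium molybdate/malachite green at 650 nm; 2% DMSO as 0% and 2 μM novobiocin as 100% inhibition; IC50 from 10 concentrations.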
S. aureus GyrB ATPase, sequence (P0A0K8 whole entry): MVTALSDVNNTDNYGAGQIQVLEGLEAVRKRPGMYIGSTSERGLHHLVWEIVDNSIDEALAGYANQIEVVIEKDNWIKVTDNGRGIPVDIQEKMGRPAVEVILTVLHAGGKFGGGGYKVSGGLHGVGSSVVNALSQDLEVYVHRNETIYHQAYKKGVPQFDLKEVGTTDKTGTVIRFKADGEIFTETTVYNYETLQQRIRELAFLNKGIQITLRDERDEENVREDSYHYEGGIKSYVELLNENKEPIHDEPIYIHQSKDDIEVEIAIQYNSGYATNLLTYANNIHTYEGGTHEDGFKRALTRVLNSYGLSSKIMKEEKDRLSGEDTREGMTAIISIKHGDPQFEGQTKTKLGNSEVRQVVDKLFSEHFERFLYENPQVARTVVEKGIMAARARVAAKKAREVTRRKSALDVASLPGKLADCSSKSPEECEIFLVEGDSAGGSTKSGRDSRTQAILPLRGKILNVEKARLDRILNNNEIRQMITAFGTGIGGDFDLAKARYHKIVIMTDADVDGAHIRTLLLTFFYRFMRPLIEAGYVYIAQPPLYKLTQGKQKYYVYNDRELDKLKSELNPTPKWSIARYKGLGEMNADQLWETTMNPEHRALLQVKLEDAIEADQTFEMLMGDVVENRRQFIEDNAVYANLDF
S. aureus GyrB ATPase, sequence (P0AES4 whole entry, further chain): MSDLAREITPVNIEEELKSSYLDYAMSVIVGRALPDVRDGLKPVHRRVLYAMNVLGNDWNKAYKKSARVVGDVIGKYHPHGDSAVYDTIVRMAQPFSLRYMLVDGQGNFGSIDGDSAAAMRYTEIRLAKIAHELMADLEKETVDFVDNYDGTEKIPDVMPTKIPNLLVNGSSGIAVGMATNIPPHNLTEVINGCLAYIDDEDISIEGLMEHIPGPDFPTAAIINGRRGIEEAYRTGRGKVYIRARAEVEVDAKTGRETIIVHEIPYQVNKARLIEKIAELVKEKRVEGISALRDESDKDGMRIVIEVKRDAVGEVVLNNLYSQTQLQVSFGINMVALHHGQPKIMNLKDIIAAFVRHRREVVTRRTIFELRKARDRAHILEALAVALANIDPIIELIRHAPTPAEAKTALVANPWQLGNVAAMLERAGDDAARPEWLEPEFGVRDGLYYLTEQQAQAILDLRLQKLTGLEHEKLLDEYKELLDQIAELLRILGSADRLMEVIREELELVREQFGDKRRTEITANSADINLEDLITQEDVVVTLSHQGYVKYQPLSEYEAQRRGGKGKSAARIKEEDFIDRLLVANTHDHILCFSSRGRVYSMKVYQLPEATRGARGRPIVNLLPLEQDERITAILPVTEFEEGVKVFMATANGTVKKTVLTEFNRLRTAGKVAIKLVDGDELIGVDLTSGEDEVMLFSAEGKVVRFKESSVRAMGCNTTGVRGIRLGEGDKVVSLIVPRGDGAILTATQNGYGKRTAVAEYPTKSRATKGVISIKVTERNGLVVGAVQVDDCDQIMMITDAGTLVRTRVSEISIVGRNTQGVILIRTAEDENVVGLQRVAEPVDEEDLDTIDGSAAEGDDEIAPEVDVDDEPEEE

A further test relates to Streptococcus pneumoniae. Briefly: Bacterial susceptibility testing in liquid media (MIC). The class given is cell-based. The note with it: against Streptococcus pneumoniae; lowest concentration reducing growth by 80% or more; 37° C., 24 hrs. As for the experimental part:
Compounds were tested for antimicrobial activity by susceptibility testing in liquid media. Compounds were dissolved in dimethylsulfoxide and tested in 10 doubling dilutions in the susceptibility assays. The organisms used in the assay were grown overnight on suitable agar media and then suspended in a liquid medium appropriate for the growth of the organism. The suspension was a 0.5 McFarland and a further 1 in 10 dilution was made into the same liquid medium to prepare the final organism suspension in 100 μL. Plates were incubated under appropriate conditions at 37° C. for 24 hrs prior to reading. The Minimum Inhibitory Concentration was determined as the lowest drug concentration able to reduce growth by 80% or more.

For the molecule `CCNC(=O)Nc1cc(-c2nc(C(F)(F)F)cs2)c(-c2cccnc2)cn1` [Example 14, 1-Ethyl-3-(4-(4-(trifluoromethyl)thiazol-2-yl)-3,3′-bipyridin-6-yl)urea], the IC50 on S. aureus GyrB ATPase (10 compound concentrations, 500 μM ATP) came to 10 nM. For the same molecule, the inhibition at 1 µM at S. aureus GyrB ATPase (compound concentration of 1.0 μM unless otherwise noted, average value where assay was carried out more than once, read-out: S. aureus (SAU) GyrB ATPase % Inhibition) is 86%. Also, the MIC against Streptococcus pneumoniae turned out to be 0.39 µM (≈ 0.153 µg/mL).
